The text below walks through data of patent US20040248257A1, “SPEX compositions and methods of use” (The Scripps Research Institute, priority 2003, published 2004).

One assay relates to hSPEX mRNA expression. To be noted: human cells; 10 μM U0126; cultured DP thymocytes; one experiment. Here is the method: (§1) The expression of mSPEX and hSPEX mRNAs is compared in cultured DP thymocytes in the presence or absence of stimulation with PMA and ionomycin and in the presence or absence of a MEK inhibitor (10 μM U0126).
Another assay relates to mSPEX mRNA expression. To be noted: murine cells; 10 μM U0126; cultured DP thymocytes; one experiment. The protocol: as §1

Consider `N#CC(=C(/N)Sc1ccccc1N)/C(C#N)=C(\N)Sc1ccccc1N` [U0126], for which the “inhibition of the increase of SPEX mRNA expression observed with PMA and ionomycin stimulation” value in the assay on hSPEX mRNA expression and in the assay with mSPEX mRNA expression was “approximately 70%” throughout.
